Data: PubChem BioAssay AID248 (DTP/NCI, 2004)
Toxic doses and inconclusive results are not listed. No stated cut-off is given here; in the data, active means T/C of 150% or more; inactive means T/C below 125%.

Tested on: L1210 leukemia ip in BDF1 mice, survival T/C
Assay: NCI In Vivo Anticancer Drug Screen. Data for tumor model L1210 Leukemia (intraperitoneal) in B6D2F1 (BDF1) mice
Conditions: endpoint: mean survival time, higher = longer survival
Procedure, shortened: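 Read-out is survival time, reported as the treated-group measurement over the vehicle-control measurement.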

[1] = dose: 100.0 mg/kg/injection, schedule: Q01DX009 (ip), vehicle: saline with Tween-80
[2] = dose: 100.0 mg/kg/injection, schedule: Q04DX003 (ip), vehicle: saline with Tween-80
[3] = dose: 200.0 mg/kg/injection, schedule: Q01DX009 (ip), vehicle: saline with Tween-80
[4] = dose: 200.0 mg/kg/injection, schedule: Q04DX003 (ip), vehicle: saline with Tween-80
[5] = dose: 400.0 mg/kg/injection, schedule: Q01DX009 (ip), vehicle: saline with Tween-80
[6] = dose: 400.0 mg/kg/injection, schedule: Q04DX003 (ip), vehicle: saline with Tween-80
[7] = dose: 100.0 mg/kg/injection, schedule: Q04DX003 (ip), vehicle: saline
[8] = dose: 200.0 mg/kg/injection, schedule: Q04DX003 (ip), vehicle: saline
[9] = dose: 400.0 mg/kg/injection, schedule: Q04DX003 (ip), vehicle: saline
[10] = dose: 100.0 mg/kg/injection, schedule: Q01DX001 (ip), vehicle: saline
[11] = dose: 200.0 mg/kg/injection, schedule: Q01DX001 (ip), vehicle: saline
[12] = dose: 400.0 mg/kg/injection, schedule: Q01DX001 (ip), vehicle: saline
[13] = dose: 50.0 mg/kg/injection, schedule: Q01DX001 (ip), vehicle: carboxymethylcellulose (CMC)
[14] = dose: 100.0 mg/kg/injection, schedule: Q01DX001 (ip), vehicle: carboxymethylcellulose (CMC)
[15] = dose: 200.0 mg/kg/injection, schedule: Q01DX001 (ip), vehicle: carboxymethylcellulose (CMC)
[16] = dose: 12.5 mg/kg/injection, schedule: Q04DX003 (ip), vehicle: Klucel (hydroxypropylcellulose) (HPC)
[17] = dose: 400.0 mg/kg/injection, schedule: Q01DX001 (ip), vehicle: carboxymethylcellulose (CMC)
[18] = dose: 50.0 mg/kg/injection, schedule: Q01DX009 (ip), vehicle: saline with Tween-80

Measured: T/C

CCCN1CCc2cc(OC)c(OC)cc2C1Cc1ccc(OC)c(OC)c1 (stereo not given)
inactive: dose: 75.0 mg/kg/injection, schedule: Q01DX001 (ip), vehicle: other 109 % of control | dose: 150.0 mg/kg/injection, schedule: Q01DX001 (ip), vehicle: other 102 % of control

OC(COc1ccc(Cl)cc1)COc1ccc(Cl)cc1
inactive: dose: 100.0 mg/kg/injection, schedule: Q01DX001 (ip), vehicle: saline with Tween-80 95 % of control | [1] 97 % of control | [2] 98 % of control | [3] 98 % of control | [4] 103 % of control | [5] 101 % of control | [6] 95 % of control

O=[N+]([O-])c1ccc(/C=N/O)o1
inactive: dose: 10.0 mg/kg/injection, schedule: Q04DX002 (ip), vehicle: Klucel (hydroxypropylcellulose) (HPC) 102 % of control | dose: 20.0 mg/kg/injection, schedule: Q04DX002 (ip), vehicle: Klucel (hydroxypropylcellulose) (HPC) 117 % of control | dose: 40.0 mg/kg/injection, schedule: Q04DX002 (ip), vehicle: Klucel (hydroxypropylcellulose) (HPC) 104 % of control | dose: 50.0 mg/kg/injection, schedule: Q01DX001 (ip), vehicle: saline 111 % of control

O=C(O)C1CCCN1CCc1ccccc1 (stereo not given)
inactive: [7] 107 % of control | [8] 105 % of control | [9] 97 % of control

C=C[Si](C)(C=C)C=C
inactive: dose: 100.0 mg/kg/injection, schedule: Q01DX005 (ip), vehicle: saline 94 % of control | dose: 200.0 mg/kg/injection, schedule: Q01DX005 (ip), vehicle: saline 97 % of control | dose: 400.0 mg/kg/injection, schedule: Q01DX005 (ip), vehicle: saline 94 % of control

CCCCCC/C(C)=N/Nc1ccc([N+](=O)[O-])cc1[N+](=O)[O-]
inactive: [10] 93 % of control | [11] 102 % of control | [12] 100 % of control

O=C(O)c1ccncc1C(=O)O
inactive: [13] 87 % of control | [14] 90 % of control | [15] 87 % of control

O=C(O)C1C2CCC1C2 (stereo not given)
inactive: [2] 98 % of control | [4] 101 % of control | [6] 95 % of control

NC1(C(=O)O)Cc2ccccc2C1
inactive: dose: 50.0 mg/kg/injection, schedule: Q01DX001 (ip), vehicle: olive oil, sesame oil, peanut oil 101 % of control | dose: 100.0 mg/kg/injection, schedule: Q01DX001 (ip), vehicle: olive oil, sesame oil, peanut oil 101 % of control | dose: 200.0 mg/kg/injection, schedule: Q01DX001 (ip), vehicle: olive oil, sesame oil, peanut oil 112 % of control | dose: 400.0 mg/kg/injection, schedule: Q01DX001 (ip), vehicle: olive oil, sesame oil, peanut oil 104 % of control

CCC(C)C(NN)C(=O)O (stereo not given)
inactive: dose: 12.0 mg/kg/injection, schedule: Q01DX Z (ip), vehicle: carboxymethylcellulose (CMC) 113 % of control | dose: 25.0 mg/kg/injection, schedule: Q01DX Z (ip), vehicle: carboxymethylcellulose (CMC) 112 % of control | dose: 50.0 mg/kg/injection, schedule: Q01DX Z (ip), vehicle: carboxymethylcellulose (CMC) 110 % of control | dose: 100.0 mg/kg/injection, schedule: Q01DX Z (ip), vehicle: carboxymethylcellulose (CMC) 118 % of control | dose: 200.0 mg/kg/injection, schedule: Q01DX015 (ip), vehicle: carboxymethylcellulose (CMC) 104 % of control

CC(C)/C=C(\C#N)C(=O)O
inactive: [16] 97 % of control | dose: 25.0 mg/kg/injection, schedule: Q01DX009 (ip), vehicle: Klucel (hydroxypropylcellulose) (HPC) 95 % of control | dose: 25.0 mg/kg/injection, schedule: Q04DX003 (ip), vehicle: Klucel (hydroxypropylcellulose) (HPC) 101 % of control | dose: 50.0 mg/kg/injection, schedule: Q01DX009 (ip), vehicle: Klucel (hydroxypropylcellulose) (HPC) 95 % of control | dose: 50.0 mg/kg/injection, schedule: Q04DX003 (ip), vehicle: Klucel (hydroxypropylcellulose) (HPC) 98 % of control

CCCOCCOCCOC(C)Oc1ccc(C(=O)OC)cc1 (stereo not given)
inactive: dose: 100.0 mg/kg/injection, schedule: Q04DX002 (ip), vehicle: saline 101 % of control | dose: 200.0 mg/kg/injection, schedule: Q04DX002 (ip), vehicle: saline 101 % of control | dose: 400.0 mg/kg/injection, schedule: Q04DX002 (ip), vehicle: saline 99 % of control

CC(=O)[O][Hg][c]1cc[c]([Hg][O]C(C)=O)s1
inactive: dose: 3.0 mg/kg/injection, schedule: Q01DX009 (ip), vehicle: Klucel (hydroxypropylcellulose) (HPC) 91 % of control | dose: 6.0 mg/kg/injection, schedule: Q01DX009 (ip), vehicle: Klucel (hydroxypropylcellulose) (HPC) 89 % of control | [16] 100 % of control

CC(C)=CCCC(C)CCO (stereo not given)
inactive: [10] 94 % of control | [11] 100 % of control

CC(Br)(C(=O)O)C(Br)c1ccccc1 (stereo not given)
inactive: [2] 90 % of control | [4] 95 % of control | [6] 88 % of control

CCOC(=O)CCc1c(C(=O)OCC)[nH]c2ccc(Cl)cc12
inactive: dose: 100.0 mg/kg/injection, schedule: Q04DX002 (ip), vehicle: Klucel (hydroxypropylcellulose) (HPC) 96 % of control | dose: 200.0 mg/kg/injection, schedule: Q04DX002 (ip), vehicle: Klucel (hydroxypropylcellulose) (HPC) 100 % of control | dose: 400.0 mg/kg/injection, schedule: Q04DX002 (ip), vehicle: Klucel (hydroxypropylcellulose) (HPC) 96 % of control

O=C(N/N=C/c1ccncc1)c1ccccc1
inactive: dose: 100.0 mg/kg/injection, schedule: Q01DX009 (ip), vehicle: saline 112 % of control | dose: 200.0 mg/kg/injection, schedule: Q01DX009 (ip), vehicle: saline 112 % of control

O=C1c2ccccc2C(=O)N1CC[P+](c1ccccc1)(c1ccccc1)c1ccccc1
inactive: dose: 1.56 mg/kg/injection, schedule: Q01DX009 (ip), vehicle: water 106 % of control | dose: 3.12 mg/kg/injection, schedule: Q01DX009 (ip), vehicle: water 107 % of control | dose: 6.25 mg/kg/injection, schedule: Q01DX009 (ip), vehicle: water 108 % of control | dose: 12.5 mg/kg/injection, schedule: Q01DX009 (ip), vehicle: water 110 % of control | dose: 25.0 mg/kg/injection, schedule: Q01DX009 (ip), vehicle: water 98 % of control

C(COC1CC2CC1C1C2CC2OC21)OC1CC2CC1C1C2CC2OC21 (stereo not given)
inactive: [13] 96 % of control | [14] 98 % of control | [15] 96 % of control | [17] 102 % of control

COc1ccc(/C=N/NC(=O)CNC(=O)c2ccc(Cl)cc2Cl)cc1OC
inactive: [18] 91 % of control | [1] 86 % of control | [3] 86 % of control

CSc1cc2c(cc1NC(C)=O)Cc1cc(F)ccc1-2
inactive: [14] 98 % of control | [15] 101 % of control | [17] 95 % of control

C/C=C/CNc1ccc(C)cc1
inactive: dose: 25.0 mg/kg/injection, schedule: Q01DX009 (ip), vehicle: saline with Tween-80 102 % of control | dose: 25.0 mg/kg/injection, schedule: Q04DX003 (ip), vehicle: saline with Tween-80 97 % of control | [18] 97 % of control | dose: 50.0 mg/kg/injection, schedule: Q04DX003 (ip), vehicle: saline with Tween-80 90 % of control | [2] 101 % of control

Cc1ccc(-c2nn[nH]n2)cc1
inactive: [7] 97 % of control | [8] 96 % of control | [9] 96 % of control

NOCc1cscn1
inactive: [10] 98 % of control | [11] 101 % of control | [12] 101 % of control

CC(=O)Nc1cccc(OCCCOc2cccc(C#N)c2)c1
inactive: dose: 100.0 mg/kg/injection, schedule: Q04DX003 (ip), vehicle: Klucel (hydroxypropylcellulose) (HPC) 96 % of control | dose: 200.0 mg/kg/injection, schedule: Q04DX003 (ip), vehicle: Klucel (hydroxypropylcellulose) (HPC) 101 % of control | dose: 400.0 mg/kg/injection, schedule: Q04DX003 (ip), vehicle: Klucel (hydroxypropylcellulose) (HPC) 98 % of control

CCn1c(C)cc(O)cc1=O
inactive: [1] 94 % of control | [3] 92 % of control | [5] 94 % of control
